From the supplement of paper PMC11208160
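Note: IS621 recombinase and bridge RNA in Escherichia coli cells.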

Assay: recombinant barcode read abundance after kanamycin selection (control-corrected) (log10(CPM+1)); higher = more efficient recombination; sequences stand for … in AGTGCAGAGAAAATCGGCCAGTTTTCTCTGCCTGCAGTCCGCATGCCGT…AGATTTATGCAGCGGACTGCCTTTCTCCCAAAGTGATAAACCGGACAGTATCATGGACCGGTTTTCCCGGTAATCCGTATTTGCAAGGTTGGTTTCACT; site = the 11-nt target
Outline: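 This pooled E. coli screen matched targets with IS621 bridge RNA target-binding loops. Plating was done in duplicate on chloramphenicol/ampicillin LB agar as a control and on chloramphenicol/ampicillin/kanamycin plus 0.1 mM IPTG. Recombination efficiency reflects barcode counts at recombinant junctions as counts per million, averaged and control-corrected. The figures are log10(CPM+1).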
For “CACCGTCCTTGGGTTCTAACCTGTTGCGT (site CACCGTCCTAT)”, the “recombinant barcode read abundance (log10)” value was 1.57.
With “AGTAGGCCTTGGGTTCTAACCTGTTGCGG (site GGTAGGACTCC)” the “recombinant barcode read abundance (log10)” value was 0.303.
In the case of “TGTTCTCCTTGGGTTCTAACCTGTTGCCT (site TGTTCTCCTAG)”, the “recombinant barcode read abundance (log10)” value is reported as 0.
For “GCGACATCTTGGGTTCTAACCTGTTGCCT (site TAAGATGCTCC)”, the “recombinant barcode read abundance (log10)” value was 0.162.
With “GACACTTCTTGGGTTCTAACCTGTTGCCT (site GACACTTCTAG)” the “recombinant barcode read abundance (log10)” value was 0.133.
In the case of “GATTCTCCTTGGGTTCTAACCTGTTGCGT (site GATTCTCCTAG)”, the “recombinant barcode read abundance (log10)” value is reported as 0.141.
In the case of “CCGATATCTTGGGTTCTAACCTGTTGCCT (site CCGTTATCTAG)”, the “recombinant barcode read abundance (log10)” value is reported as 0.567.
In the case of “CAAAGTCCTTGGGTTCTAACCTGTTGCAT (site CAAAGTCCTAT)”, the “recombinant barcode read abundance (log10)” value is reported as 1.46.
For “GCTGGGTCTTGGGTTCTAACCTGTTGCCT (site GCTGGGTCTAG)”, the “recombinant barcode read abundance (log10)” value was 0.814.
In the case of “TGCGCTACTTGGGTTCTAACCTGTTGCCT (site TGCGCAACTAG)”, the “recombinant barcode read abundance (log10)” value is reported as 0.0205.
For “CCACCGCCTTGGGTTCTAACCTGTTGCCT (site GCACCGCCTAG)”, the “recombinant barcode read abundance (log10)” value was 0.211.
In the case of “TACGGGTCTTGGGTTCTAACCTGTTGCCT (site TACGGGTCTAG)”, the “recombinant barcode read abundance (log10)” value is reported as 1.16.
With “GGCAACTCTTGGGTTCTAACCTGTTGCCT (site GGCAACTCTAG)” the “recombinant barcode read abundance (log10)” value was 0.0853.
In the case of “TGGCCAACTTGGGTTCTAACCTGTTGCGT (site TGGCCAACTAC)”, the “recombinant barcode read abundance (log10)” value is reported as 1.84.
For “CTGTCTCCTTGGGTTCTAACCTGTTGCCT (site CTGTCTCCTAG)”, the “recombinant barcode read abundance (log10)” value was 1.29.
In the case of “TGAAGGTCTTGGGTTCTAACCTGTTGCCT (site TGAAAGTCTAG)”, the “recombinant barcode read abundance (log10)” value is reported as 0.213.
With “AGACTCCCTTGGGTTCTAACCTGTTGCCT (site AGGCTCCCTAG)” the “recombinant barcode read abundance (log10)” value was 0.0602.
With “TAGGTCACTTGGGTTCTAACCTGTTGCAT (site TAGCTCACTAT)” the “recombinant barcode read abundance (log10)” value was 0.0353.
In the case of “ACTAAACCTTGGGTTCTAACCTGTTGCCT (site GCTAACCCTAG)”, the “recombinant barcode read abundance (log10)” value is reported as 0.246.
With “CAAACTACTTGGGTTCTAACCTGTTGCCA (site TTGCGGCCTCT)” the “recombinant barcode read abundance (log10)” value was 0.078.
With “TAGAGCCCTTGGGTTCTAACCTGTTGCGG (site TCGAGGCCTCC)” the “recombinant barcode read abundance (log10)” value was 0.0902.
In the case of “CTATGTCCTTGGGTTCTAACCTGTTGCGT (site CTATGTCCTAC)”, the “recombinant barcode read abundance (log10)” value is reported as 1.44.
With “TAACTTACTTGGGTTCTAACCTGTTGCCT (site TAACTTACTAG)” the “recombinant barcode read abundance (log10)” value was 0.185.
In the case of “TTCAACTCTTGGGTTCTAACCTGTTGCGT (site TTCAAGTCTAC)”, the “recombinant barcode read abundance (log10)” value is reported as 0.0543.
With “TTGCCTTCTTGGGTTCTAACCTGTTGCCT (site TTGCCTTCTAG)” the “recombinant barcode read abundance (log10)” value was 0.686.
With “ACATCTACTTGGGTTCTAACCTGTTGCTA (site ACTTCTACTTA)” the “recombinant barcode read abundance (log10)” value was 0.0475.
In the case of “AGCGCTCCTTGGGTTCTAACCTGTTGCCT (site AACGCTCCTAG)”, the “recombinant barcode read abundance (log10)” value is reported as 0.0472.
In the case of “TGCCGACCTTGGGTTCTAACCTGTTGCCT (site TGCCGACCTAG)”, the “recombinant barcode read abundance (log10)” value is reported as 0.321.
In the case of “TAGTATGCTTGGGTTCTAACCTGTTGCTA (site TAGTATCCTTA)”, the “recombinant barcode read abundance (log10)” value is reported as 0.0173.
In the case of “ATGTAGGCTTGGGTTCTAACCTGTTGCCT (site ATGTTAGCTAG)”, the “recombinant barcode read abundance (log10)” value is reported as 0.127.
For “ACTAATCCTTGGGTTCTAACCTGTTGCTT (site ACTAATCCTAA)”, the “recombinant barcode read abundance (log10)” value was 0.236.
For “AGTATGTCTTGGGTTCTAACCTGTTGCCT (site CGTATGTCTAG)”, the “recombinant barcode read abundance (log10)” value was 0.184.
With “TAGTTACCTTGGGTTCTAACCTGTTGCCG (site TACTTAGCTCG)” the “recombinant barcode read abundance (log10)” value was 0.00977.
With “ACCGCTTCTTGGGTTCTAACCTGTTGCCT (site ATCGCTTCTAG)” the “recombinant barcode read abundance (log10)” value was 0.329.
In the case of “TAATTTGCTTGGGTTCTAACCTGTTGCCT (site TAATTTGCTAG)”, the “recombinant barcode read abundance (log10)” value is reported as 0.182.
For “GGCAGACCTTGGGTTCTAACCTGTTGCCT (site GGCAGTCCTCG)”, the “recombinant barcode read abundance (log10)” value was 0.373.
For “TCCCCGACTTGGGTTCTAACCTGTTGCCG (site TCCCCGACTCG)”, the “recombinant barcode read abundance (log10)” value was 1.03.
For “GATAACTCTTGGGTTCTAACCTGTTGCCT (site CATAACTCTAG)”, the “recombinant barcode read abundance (log10)” value was 0.329.
With “CATCCTACTTGGGTTCTAACCTGTTGCCG (site CATCCTACTCG)” the “recombinant barcode read abundance (log10)” value was 0.156.
For “AGTCTAGCTTGGGTTCTAACCTGTTGCCA (site AGTCTAGCTGG)”, the “recombinant barcode read abundance (log10)” value was 0.548.
In the case of “GAGTACCCTTGGGTTCTAACCTGTTGCGT (site GAGAATCCTAC)”, the “recombinant barcode read abundance (log10)” value is reported as 0.107.
With “TATTGGACTTGGGTTCTAACCTGTTGCAC (site TATTGGACTTT)” the “recombinant barcode read abundance (log10)” value was 0.0673.
For “CCGCCTGCTTGGGTTCTAACCTGTTGCCT (site CCGCCGGCTAG)”, the “recombinant barcode read abundance (log10)” value was 0.24.
With “GCTGAGACTTGGGTTCTAACCTGTTGCGT (site GCTGAGACTAC)” the “recombinant barcode read abundance (log10)” value was 2.04.
For “AGGTTCCCTTGGGTTCTAACCTGTTGCTG (site AGGTTCCCTAA)”, the “recombinant barcode read abundance (log10)” value was 0.154.
With “GGTTGTCCTTGGGTTCTAACCTGTTGCGG (site GGTTGCCCTCC)” the “recombinant barcode read abundance (log10)” value was 0.0684.
For “AGAGGGTCTTGGGTTCTAACCTGTTGCTT (site GGAGGGTCTAA)”, the “recombinant barcode read abundance (log10)” value was 0.0269.
For “CTATTTCCTTGGGTTCTAACCTGTTGCCT (site CTATTTCCTAG)”, the “recombinant barcode read abundance (log10)” value was 0.284.
With “TCGGATACTTGGGTTCTAACCTGTTGCTT (site TCGGATACTAG)” the “recombinant barcode read abundance (log10)” value was 0.759.
For “GACTTGTCTTGGGTTCTAACCTGTTGCCT (site GACTTGGCTAG)”, the “recombinant barcode read abundance (log10)” value was 0.0443.
In the case of “GGTGGGTCTTGGGTTCTAACCTGTTGCAT (site GGTGGGTCTAC)”, the “recombinant barcode read abundance (log10)” value is reported as 0.128.
In the case of “ATCTTATCTTGGGTTCTAACCTGTTGCCT (site ATCTTAGCTAG)”, the “recombinant barcode read abundance (log10)” value is reported as 0.0977.
For “GTCGGCACTTGGGTTCTAACCTGTTGCCT (site GTCGGAACTAG)”, the “recombinant barcode read abundance (log10)” value was 0.359.
For “GGGTCCTCTTGGGTTCTAACCTGTTGCCT (site GGGTCCTCTCG)”, the “recombinant barcode read abundance (log10)” value was 0.776.
With “AGAGAACCTTGGGTTCTAACCTGTTGCCT (site CGAGAACCTAG)” the “recombinant barcode read abundance (log10)” value was 0.415.
For “TGTTGACCTTGGGTTCTAACCTGTTGCAT (site TGTAGATCTAT)”, the “recombinant barcode read abundance (log10)” value was 0.0346.
In the case of “GTGGGCGCTTGGGTTCTAACCTGTTGCCT (site GTTGGCGCTAG)”, the “recombinant barcode read abundance (log10)” value is reported as 0.524.
With “GAGGCTCCTTGGGTTCTAACCTGTTGCCT (site GAGGCTCCTGG)” the “recombinant barcode read abundance (log10)” value was 0.137.
In the case of “CTGCACCCTTGGGTTCTAACCTGTTGCAG (site CTGCACCCTCT)”, the “recombinant barcode read abundance (log10)” value is reported as 0.477.
With “AAAGTACCTTGGGTTCTAACCTGTTGCCT (site CAAGTACCTAG)” the “recombinant barcode read abundance (log10)” value was 0.741.
In the case of “CCTGAGTCTTGGGTTCTAACCTGTTGCCT (site CCTGATTCTAG)”, the “recombinant barcode read abundance (log10)” value is reported as 0.0908.
With “AGAAATACTTGGGTTCTAACCTGTTGCCG (site AGAAATACTCG)” the “recombinant barcode read abundance (log10)” value was 1.07.
In the case of “ATAATAGCTTGGGTTCTAACCTGTTGCCT (site ATAACAGCTAG)”, the “recombinant barcode read abundance (log10)” value is reported as 0.0342.
For “ATAATAGCTTGGGTTCTAACCTGTTGCCT (site ATAAGAGCTAG)”, the “recombinant barcode read abundance (log10)” value was 0.0465.
In the case of “CTCCGCTCTTGGGTTCTAACCTGTTGCCT (site TTCCGCTCTAG)”, the “recombinant barcode read abundance (log10)” value is reported as 0.113.
For “CAACCTTCTTGGGTTCTAACCTGTTGCCT (site CTACCTTCTAG)”, the “recombinant barcode read abundance (log10)” value was 0.025.
For “TGAGGGTCTTGGGTTCTAACCTGTTGCTT (site TGAGGGTCTAA)”, the “recombinant barcode read abundance (log10)” value was 0.452.
In the case of “CACAACACTTGGGTTCTAACCTGTTGCCT (site CACAGCACTAG)”, the “recombinant barcode read abundance (log10)” value is reported as 0.0135.
In the case of “GACCGTCCTTGGGTTCTAACCTGTTGCTT (site GACCGTCCTAC)”, the “recombinant barcode read abundance (log10)” value is reported as 0.447.
For “ATGTCTCCTTGGGTTCTAACCTGTTGCCT (site CTGTCTCCTAG)”, the “recombinant barcode read abundance (log10)” value was 0.0833.
With “CCAGAGTCTTGGGTTCTAACCTGTTGCCG (site CCAGAGTCTCG)” the “recombinant barcode read abundance (log10)” value was 0.288.
For “CTGAGAGCTTGGGTTCTAACCTGTTGCCT (site CGGAGAGCTAG)”, the “recombinant barcode read abundance (log10)” value was 0.156.
In the case of “GGCTTCTCTTGGGTTCTAACCTGTTGCCT (site GGCTTCTCTAG)”, the “recombinant barcode read abundance (log10)” value is reported as 1.22.
For “GTGACCGCTTGGGTTCTAACCTGTTGCCT (site GTCACCGCTAG)”, the “recombinant barcode read abundance (log10)” value was 0.235.
With “TCTCAGGCTTGGGTTCTAACCTGTTGCCG (site TCACAGGCTCG)” the “recombinant barcode read abundance (log10)” value was 0.203.
For “TACAAGTCTTGGGTTCTAACCTGTTGCAG (site TACAAGTCTCT)”, the “recombinant barcode read abundance (log10)” value was 1.47.
With “CGTAGGGCTTGGGTTCTAACCTGTTGCCG (site CGTAGGGCTCG)” the “recombinant barcode read abundance (log10)” value was 0.102.
For “GAGGGTACTTGGGTTCTAACCTGTTGCAT (site GAGTGTACTAT)”, the “recombinant barcode read abundance (log10)” value was 0.102.
For “TTAGAGGCTTGGGTTCTAACCTGTTGCCT (site TTAGAGACTAG)”, the “recombinant barcode read abundance (log10)” value was 0.363.
In the case of “CATCCCTCTTGGGTTCTAACCTGTTGCTT (site CATCCGTCTAA)”, the “recombinant barcode read abundance (log10)” value is reported as 0.0576.
With “ATCCATCCTTGGGTTCTAACCTGTTGCCT (site ATCCAGCCTAG)” the “recombinant barcode read abundance (log10)” value was 0.0583.
For “CGAGAGTCTTGGGTTCTAACCTGTTGCGG (site AGAGAGGCTCC)”, the “recombinant barcode read abundance (log10)” value was 0.119.
For “TGTTCTCCTTGGGTTCTAACCTGTTGCCT (site CGTTCTCCTAG)”, the “recombinant barcode read abundance (log10)” value was 0.0608.
In the case of “CGTGACCCTTGGGTTCTAACCTGTTGCTT (site CGTGACCCTAA)”, the “recombinant barcode read abundance (log10)” value is reported as 0.691.
For “CGTAGCCCTTGGGTTCTAACCTGTTGCGG (site CGTAGCCCTCC)”, the “recombinant barcode read abundance (log10)” value was 0.691.
In the case of “CGTATGACTTGGGTTCTAACCTGTTGCCT (site CGTATGACTAG)”, the “recombinant barcode read abundance (log10)” value is reported as 0.0395.
